Measurements as given in patent US12343326B2, “Psychoactive medicines and their use for treating psychiatric and neurological conditions and disorders” (Transcend Therapeutics, Inc., priority 2021, dated 2025).

Assays:
Test in all cases: β-arrestin based GPCR screen (PathHunter / GPCRmax), agonist mode
Type in all cases: cell-based
Parameters in all cases: host or cells: PathHunter cell lines
168 GPCRs [1] = molecular target: 168 GPCRs (Homo sapiens, UniProt O00574)
Experimental: (§1) For agonist determination, cells were incubated with sample to induce response. […] Vehicle concentration was 1%.

168 GPCRs [2] = molecular target: T1, 168 GPCRs (Homo sapiens, UniProt P08173); settings: CHRM4, Agonist
T1 sequence (P08173 1-479): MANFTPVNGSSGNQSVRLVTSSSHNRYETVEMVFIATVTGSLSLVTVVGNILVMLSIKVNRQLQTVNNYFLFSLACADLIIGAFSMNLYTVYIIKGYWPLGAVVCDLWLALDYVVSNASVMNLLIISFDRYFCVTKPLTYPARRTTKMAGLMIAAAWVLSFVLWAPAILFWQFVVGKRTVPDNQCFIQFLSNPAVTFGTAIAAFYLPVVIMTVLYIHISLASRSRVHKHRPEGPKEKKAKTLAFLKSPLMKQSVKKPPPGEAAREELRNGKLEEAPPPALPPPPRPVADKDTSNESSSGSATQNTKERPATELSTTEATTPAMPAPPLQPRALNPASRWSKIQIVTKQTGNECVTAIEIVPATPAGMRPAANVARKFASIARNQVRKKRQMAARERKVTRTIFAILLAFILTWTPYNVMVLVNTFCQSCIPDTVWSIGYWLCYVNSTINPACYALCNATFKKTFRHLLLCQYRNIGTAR
Experimental: as §1

168 GPCRs [3] = molecular target: 168 GPCRs (Homo sapiens, UniProt P08913); settings: ADRA2A, Agonist
Experimental: as §1

168 GPCRs [4] = molecular target: 168 GPCRs (Homo sapiens, UniProt P11229); settings: CHRM1, Agonist
Experimental: as §1

168 GPCRs [5] = molecular target: 168 GPCRs (Homo sapiens, UniProt P14416); settings: DRD2L
Experimental: as §1

168 GPCRs [6] = molecular target: 168 GPCRs (Homo sapiens, UniProt P21453)
Experimental: as §1

168 GPCRs [7] = molecular target: 168 GPCRs (Homo sapiens, UniProt P25105); settings: PTAFR
Experimental: as §1

168 GPCRs [8] = molecular target: 168 GPCRs (Homo sapiens, UniProt P32241)
Experimental: as §1

168 GPCRs [9] = molecular target: 168 GPCRs (Homo sapiens, UniProt P34972)
Experimental: as §1

168 GPCRs [10] = molecular target: 168 GPCRs (Homo sapiens, UniProt P35346)
Experimental: as §1

168 GPCRs [11] = molecular target: 168 GPCRs (Homo sapiens, UniProt P41587)
Experimental: as §1

168 GPCRs [12] = molecular target: 168 GPCRs (Homo sapiens, UniProt P48145)
Experimental: as §1

168 GPCRs [13] = molecular target: 168 GPCRs (Homo sapiens, UniProt P51582)
Experimental: as §1

168 GPCRs [14] = molecular target: 168 GPCRs (Homo sapiens, UniProt P51681); settings: CCR5, CCR5, Agonist
Experimental: as §1

168 GPCRs [15] = molecular target: T2, 168 GPCRs (Homo sapiens, UniProt Q96RI0)
T2 sequence (Q96RI0 18-385): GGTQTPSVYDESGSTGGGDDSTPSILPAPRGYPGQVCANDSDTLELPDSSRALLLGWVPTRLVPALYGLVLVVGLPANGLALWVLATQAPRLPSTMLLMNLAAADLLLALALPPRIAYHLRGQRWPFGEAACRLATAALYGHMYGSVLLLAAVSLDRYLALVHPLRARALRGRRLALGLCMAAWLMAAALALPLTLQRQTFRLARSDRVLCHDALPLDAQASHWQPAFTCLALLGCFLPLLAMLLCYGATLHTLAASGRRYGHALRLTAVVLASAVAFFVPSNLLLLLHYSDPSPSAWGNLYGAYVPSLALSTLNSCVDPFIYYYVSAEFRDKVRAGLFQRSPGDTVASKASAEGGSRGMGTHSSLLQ
Experimental: as §1

168 GPCRs [16] = molecular target: 168 GPCRs (Homo sapiens, UniProt Q9Y5N1)
Experimental: as §1

Sequence of 168 GPCRs (Homo sapiens, UniProt P21453) (P21453 whole entry): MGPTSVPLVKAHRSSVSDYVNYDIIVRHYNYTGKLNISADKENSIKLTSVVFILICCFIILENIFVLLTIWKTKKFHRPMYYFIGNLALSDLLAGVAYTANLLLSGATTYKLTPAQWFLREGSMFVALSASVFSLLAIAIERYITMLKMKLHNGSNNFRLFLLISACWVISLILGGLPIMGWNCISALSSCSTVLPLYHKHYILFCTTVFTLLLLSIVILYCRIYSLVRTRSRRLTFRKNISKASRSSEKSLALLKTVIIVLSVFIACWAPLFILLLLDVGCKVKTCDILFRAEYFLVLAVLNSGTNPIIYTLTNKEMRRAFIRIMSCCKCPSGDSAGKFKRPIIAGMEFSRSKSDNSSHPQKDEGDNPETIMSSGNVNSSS
Sequence of 168 GPCRs (Homo sapiens, UniProt P51582) (P51582 whole entry): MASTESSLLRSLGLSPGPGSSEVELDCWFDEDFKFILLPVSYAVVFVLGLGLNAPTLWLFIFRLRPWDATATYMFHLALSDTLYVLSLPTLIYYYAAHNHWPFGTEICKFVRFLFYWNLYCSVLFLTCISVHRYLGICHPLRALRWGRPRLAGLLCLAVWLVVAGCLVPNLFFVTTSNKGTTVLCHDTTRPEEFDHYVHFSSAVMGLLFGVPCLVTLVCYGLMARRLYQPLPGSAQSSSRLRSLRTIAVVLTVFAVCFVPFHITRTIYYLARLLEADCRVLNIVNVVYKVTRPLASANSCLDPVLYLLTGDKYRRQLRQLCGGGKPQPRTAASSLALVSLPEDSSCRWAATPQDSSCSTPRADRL
Sequence of 168 GPCRs (Homo sapiens, UniProt Q9Y5N1) (Q9Y5N1 whole entry): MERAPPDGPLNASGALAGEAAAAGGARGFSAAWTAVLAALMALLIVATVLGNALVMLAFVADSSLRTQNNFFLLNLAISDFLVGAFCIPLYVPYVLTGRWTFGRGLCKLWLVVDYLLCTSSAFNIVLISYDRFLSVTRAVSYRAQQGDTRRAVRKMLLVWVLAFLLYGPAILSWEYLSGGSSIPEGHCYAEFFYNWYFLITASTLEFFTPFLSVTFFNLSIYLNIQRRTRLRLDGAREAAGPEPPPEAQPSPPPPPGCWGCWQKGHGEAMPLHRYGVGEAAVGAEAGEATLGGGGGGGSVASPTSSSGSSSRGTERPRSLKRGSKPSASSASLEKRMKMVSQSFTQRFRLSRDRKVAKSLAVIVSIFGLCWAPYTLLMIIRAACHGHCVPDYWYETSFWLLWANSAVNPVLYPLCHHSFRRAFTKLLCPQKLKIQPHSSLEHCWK
Sequence of 168 GPCRs (Homo sapiens, UniProt P14416) (P14416 whole entry): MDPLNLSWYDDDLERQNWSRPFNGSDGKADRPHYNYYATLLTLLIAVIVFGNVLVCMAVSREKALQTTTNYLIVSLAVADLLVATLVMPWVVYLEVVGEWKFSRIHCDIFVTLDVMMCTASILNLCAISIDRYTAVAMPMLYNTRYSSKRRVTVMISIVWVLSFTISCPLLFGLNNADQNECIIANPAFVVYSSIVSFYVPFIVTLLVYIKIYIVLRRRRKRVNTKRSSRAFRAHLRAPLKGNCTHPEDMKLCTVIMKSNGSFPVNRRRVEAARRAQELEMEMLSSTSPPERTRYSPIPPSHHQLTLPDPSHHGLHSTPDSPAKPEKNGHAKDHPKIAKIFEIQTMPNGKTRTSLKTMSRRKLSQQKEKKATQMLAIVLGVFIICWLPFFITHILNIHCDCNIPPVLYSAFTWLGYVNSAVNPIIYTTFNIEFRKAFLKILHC
Sequence of 168 GPCRs (Homo sapiens, UniProt P48145) (P48145 whole entry): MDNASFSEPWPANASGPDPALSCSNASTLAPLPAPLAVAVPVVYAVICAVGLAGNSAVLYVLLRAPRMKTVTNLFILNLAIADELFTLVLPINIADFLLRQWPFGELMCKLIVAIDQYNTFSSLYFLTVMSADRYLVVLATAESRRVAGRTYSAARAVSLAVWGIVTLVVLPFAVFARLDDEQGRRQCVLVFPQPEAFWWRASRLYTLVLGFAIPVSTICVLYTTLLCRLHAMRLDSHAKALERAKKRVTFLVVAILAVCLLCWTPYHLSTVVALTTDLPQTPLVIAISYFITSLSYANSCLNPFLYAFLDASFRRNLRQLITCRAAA
Sequence of 168 GPCRs (Homo sapiens, UniProt P35346) (P35346 whole entry): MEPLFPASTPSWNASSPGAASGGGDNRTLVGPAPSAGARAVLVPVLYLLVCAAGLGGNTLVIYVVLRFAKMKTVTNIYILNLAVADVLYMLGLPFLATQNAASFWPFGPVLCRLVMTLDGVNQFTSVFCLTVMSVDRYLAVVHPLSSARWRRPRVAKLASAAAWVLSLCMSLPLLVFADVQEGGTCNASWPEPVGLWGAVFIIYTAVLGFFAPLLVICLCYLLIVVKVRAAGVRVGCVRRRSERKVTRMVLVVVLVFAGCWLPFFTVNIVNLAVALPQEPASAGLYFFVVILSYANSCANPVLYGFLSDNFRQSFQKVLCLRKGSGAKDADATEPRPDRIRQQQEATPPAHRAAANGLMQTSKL
Sequence of 168 GPCRs (Homo sapiens, UniProt P32241) (P32241 31-457): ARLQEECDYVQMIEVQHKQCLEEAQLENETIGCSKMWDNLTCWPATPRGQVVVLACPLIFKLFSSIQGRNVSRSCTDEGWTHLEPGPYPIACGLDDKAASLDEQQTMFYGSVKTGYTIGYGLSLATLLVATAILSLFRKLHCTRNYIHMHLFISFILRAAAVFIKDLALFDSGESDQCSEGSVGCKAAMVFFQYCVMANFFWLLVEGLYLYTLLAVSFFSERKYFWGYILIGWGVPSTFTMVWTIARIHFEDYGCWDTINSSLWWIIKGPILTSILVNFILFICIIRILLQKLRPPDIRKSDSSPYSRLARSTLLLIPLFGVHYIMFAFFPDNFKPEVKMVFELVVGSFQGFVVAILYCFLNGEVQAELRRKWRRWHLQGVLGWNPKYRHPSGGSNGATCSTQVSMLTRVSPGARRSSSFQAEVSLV
Sequence of 168 GPCRs (Homo sapiens, UniProt P41587) (P41587 24-438): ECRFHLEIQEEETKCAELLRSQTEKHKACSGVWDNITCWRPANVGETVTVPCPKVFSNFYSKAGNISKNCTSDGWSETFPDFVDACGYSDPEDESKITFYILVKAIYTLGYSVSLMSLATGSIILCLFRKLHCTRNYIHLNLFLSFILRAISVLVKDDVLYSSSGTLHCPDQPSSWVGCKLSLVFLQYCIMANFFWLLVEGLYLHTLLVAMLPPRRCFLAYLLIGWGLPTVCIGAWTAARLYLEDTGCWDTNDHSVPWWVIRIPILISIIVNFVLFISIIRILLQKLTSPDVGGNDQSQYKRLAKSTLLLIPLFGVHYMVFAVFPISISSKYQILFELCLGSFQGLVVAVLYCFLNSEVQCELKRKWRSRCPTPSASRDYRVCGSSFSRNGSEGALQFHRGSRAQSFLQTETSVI
Sequence of 168 GPCRs (Homo sapiens, UniProt P51681) (P51681 whole entry): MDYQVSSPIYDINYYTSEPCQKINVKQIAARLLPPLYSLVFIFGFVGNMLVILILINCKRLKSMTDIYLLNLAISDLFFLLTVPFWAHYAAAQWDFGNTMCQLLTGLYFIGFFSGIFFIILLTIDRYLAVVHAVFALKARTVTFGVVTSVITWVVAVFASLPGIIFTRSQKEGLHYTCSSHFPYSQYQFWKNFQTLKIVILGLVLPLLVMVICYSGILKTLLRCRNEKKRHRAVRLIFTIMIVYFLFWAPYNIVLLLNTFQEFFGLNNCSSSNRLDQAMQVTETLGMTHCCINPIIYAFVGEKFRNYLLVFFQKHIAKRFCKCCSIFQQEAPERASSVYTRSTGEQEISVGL
Sequence of 168 GPCRs (Homo sapiens, UniProt P34972) (P34972 whole entry): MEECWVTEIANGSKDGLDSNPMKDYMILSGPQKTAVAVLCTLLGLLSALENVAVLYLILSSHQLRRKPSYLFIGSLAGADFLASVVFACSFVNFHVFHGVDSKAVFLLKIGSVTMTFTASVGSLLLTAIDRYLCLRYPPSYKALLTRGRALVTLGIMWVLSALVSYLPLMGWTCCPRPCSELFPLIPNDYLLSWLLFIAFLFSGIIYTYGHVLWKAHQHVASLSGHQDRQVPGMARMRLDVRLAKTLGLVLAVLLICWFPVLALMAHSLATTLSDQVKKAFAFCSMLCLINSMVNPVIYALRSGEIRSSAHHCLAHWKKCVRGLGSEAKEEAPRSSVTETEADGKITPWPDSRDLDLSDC
Sequence of 168 GPCRs (Homo sapiens, UniProt P11229) (P11229 whole entry): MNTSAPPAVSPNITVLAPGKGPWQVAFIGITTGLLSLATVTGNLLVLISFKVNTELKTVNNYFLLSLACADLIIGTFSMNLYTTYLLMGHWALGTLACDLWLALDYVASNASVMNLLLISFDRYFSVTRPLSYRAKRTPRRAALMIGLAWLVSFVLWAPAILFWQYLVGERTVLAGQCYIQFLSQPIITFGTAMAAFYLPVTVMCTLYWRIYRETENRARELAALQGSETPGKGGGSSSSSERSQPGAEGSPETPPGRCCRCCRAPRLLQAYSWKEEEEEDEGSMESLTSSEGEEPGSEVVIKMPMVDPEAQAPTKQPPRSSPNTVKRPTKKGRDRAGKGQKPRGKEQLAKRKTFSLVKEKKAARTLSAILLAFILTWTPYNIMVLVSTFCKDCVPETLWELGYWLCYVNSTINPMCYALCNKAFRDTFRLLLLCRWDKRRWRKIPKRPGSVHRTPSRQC
Sequence of 168 GPCRs (Homo sapiens, UniProt O00574) (O00574 whole entry): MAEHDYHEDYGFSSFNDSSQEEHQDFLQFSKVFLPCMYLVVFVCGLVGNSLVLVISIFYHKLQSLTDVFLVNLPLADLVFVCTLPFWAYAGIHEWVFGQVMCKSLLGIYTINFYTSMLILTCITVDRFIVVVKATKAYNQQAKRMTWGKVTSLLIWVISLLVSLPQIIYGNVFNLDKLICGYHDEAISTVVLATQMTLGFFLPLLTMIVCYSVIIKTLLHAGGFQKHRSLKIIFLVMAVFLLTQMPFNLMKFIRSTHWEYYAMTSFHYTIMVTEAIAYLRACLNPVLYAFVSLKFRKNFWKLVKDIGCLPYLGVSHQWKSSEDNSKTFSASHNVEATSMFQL

CNC(C)C(=O)c1ccc2c(c1)OCO2 (centres unmarked) [methylone, 3,4-methylenedioxy-N-methylcathinone]
activity at 10 µM (168 GPCRs [1]; CXCR6, Agonist mode, 10 uM): 0.3% | activity at 1 µM (168 GPCRs [1]; CXCR6, Agonist, 1 uM): 0.3% | activity at 1 µM (168 GPCRs [2]; 1 uM): -5.8% | activity at 10 µM (168 GPCRs [2]; 10 uM): -6.2% | activity at 1 µM (168 GPCRs [3]; 1 uM): -3.8% | activity at 10 µM (168 GPCRs [3]; 10 uM): -3.8% | activity at 1 µM (168 GPCRs [4]; 1 uM): -9.1% | activity at 10 µM (168 GPCRs [4]; 10 uM): 8.5% | activity at 10 µM (168 GPCRs [5]; Agonist mode, 10 uM): 0.7% | activity at 1 µM (168 GPCRs [5]; Agonist, 1 uM): 0.1% | activity at 10 µM (168 GPCRs [6]; EDG1, Agonist mode, 10 uM): 0.4% | activity at 1 µM (168 GPCRs [6]; EDG1, Agonist, 1 uM): 0.1% | activity at 10 µM (168 GPCRs [7]; Agonist mode, 10 uM): -2.6% | activity at 1 µM (168 GPCRs [7]; Agonist, 1 uM): -1.3% | activity at 10 µM (168 GPCRs [8]; VIPR1, Agonist mode, 10 uM): 0.6% | activity at 1 µM (168 GPCRs [8]; VIPR1, Agonist, 1 uM): 0.3% | activity at 10 µM (168 GPCRs [9]; CNR2, Agonist mode, 10 uM): 3.2% | activity at 1 µM (168 GPCRs [9]; CNR2, Agonist, 1 uM): 7% | activity at 10 µM (168 GPCRs [10]; SSTR5, Agonist mode, 10 uM): -1.3% | activity at 1 µM (168 GPCRs [10]; SSTR5, Agonist, 1 uM): -2.4% | activity at 10 µM (168 GPCRs [11]; VIPR2, Agonist mode, 10 uM): -0.3% | activity at 1 µM (168 GPCRs [11]; VIPR2, Agonist, 1 uM): -0.4% | activity at 10 µM (168 GPCRs [12]; NPBWR1, Agonist mode, 10 uM): -1.9% | activity at 1 µM (168 GPCRs [12]; NPBWR1, Agonist, 1 uM): 1.6% | activity at 10 µM (168 GPCRs [13]; P2RY4, Agonist mode, 10 uM): 4.1% | activity at 1 µM (168 GPCRs [13]; P2RY4, Agonist, 1 uM): -3.3% | activity at 1 µM (168 GPCRs [14]; 1 uM): -0.1% | activity at 10 µM (168 GPCRs [14]; 10 uM): 0.3% | activity at 10 µM (168 GPCRs [15]; F2RL3, Agonist mode, 10 uM): 7% | activity at 1 µM (168 GPCRs [15]; F2RL3, Agonist, 1 uM): 4.3% | activity at 10 µM (168 GPCRs [16]; HRH3, Agonist mode, 10 uM): -3.7% | activity at 1 µM (168 GPCRs [16]; HRH3, Agonist, 1 uM): -3.4%
